The source of these data is patent publication US12281122B1, “PI3K inhibitors” (Cogent Biosciences, Inc., priority 2023, dated 2025).

The subject of experiment [1] is T47D (PI3Kα-H1047R) cell line. Description: HTRF phospho-AKT(S473) cell assay in T47D cells. Type of experiment: cell-based, human. In short, it runs like this: (§1)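 T47D (PI3Kα-H1047R; RPMI, 10% FBS, insulin) and SKBR3 (wild-type PI3Kα; McCoy's 5A, 10% FBS) cells treated 2 h at 37 °C with 12-point 1:3 dilutions, top 5 μM and 10 μM respectively, ≤0.5% DMSO. SKBR3 stimulated with 70 ng/ml PDGF-BB for the last 15 min; lysate pAKT(S473) by HTRF, IC50 from curves.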

Experiment [2] has as its system SKBR3 (PI3Kα-Wild Type) cell line. Description: HTRF phospho-AKT(S473) cell assay in SKBR3 cells. Type of experiment: cell-based, human. The essentials:
as §1
On the technique in general: Time-resolved FRET reads energy transfer from a long-lived donor to a nearby acceptor.

Setting [3] is: Homo sapiens; HTRF phospho-AKT(S473), T47D (PI3Kα-H1047R) cells, 2 hours compound incubation.
Setting [4] is: Homo sapiens, SK-BR-3; HTRF phospho-AKT(S473), SKBR3 (PI3Kα-Wild Type) cells, 2 hours compound incubation, PDGF-BB stimulated.
[5] abbreviates: Homo sapiens; T47D (PI3Kα-H1047R) cells, HTRF phospho-AKT(S473), 2 hours compound incubation.
[6] abbreviates: Homo sapiens, SK-BR-3; SKBR3 (PI3Kα-Wild Type) cells, HTRF phospho-AKT(S473), 2 hours compound incubation, PDGF-BB stimulated.

Consider `Cc1cc([C@@H](C)Nc2ccc(Cl)nc2C(=O)NS(C)(=O)=O)c2nc(-c3ccc([C@@H]4CN(C)CCO4)cc3)n(C)c(=O)c2c1` (relative stereo) [Compound 803, 6-chloro-3-(((R)-1-(3,6-dimethyl-2-(4-((R*)-4-methylmorpholin-2-yl)phenyl)-4-oxo-3,4-dihydroquinazolin-8-yl)ethyl)amino)-N-(methylsulfonyl) picolinamide], for which the half-inhibitory concentration (IC50) – broadly, the concentration that inhibits the measured activity by half – in experiment [1] (setting [3]) was below 250 nM; in experiment [2] (setting [4]), at least 5000 nM.
`Cc1cc([C@@H](C)Nc2ccc(Cl)nc2C(=O)NS(C)(=O)=O)c2nc(N3C[C@H]4C[C@@H](c5cc[nH]n5)[C@@H]3C4)n(C)c(=O)c2c1` (single isomer, unassigned) [Compound 346, 3-(((R)-1-(2-((1S,4S,6R*)-6-(1H-pyrazol-3-yl)-2-azabicyclo[2.2.1]heptan-2-yl)-3,6-dimethyl-4-oxo-3,4-dihydroquinazolin-8-yl)ethyl)amino)-6-chloro-N-(methylsulfonyl) picolinamide]: the IC50 was 250 to 500 nM in experiment [1] (setting [5]) and at least 5000 nM in experiment [2] (setting [6]).
The matching figures for `Cc1cc([C@@H](C)Nc2ccc(Cl)nc2C(=O)NS(C)(=O)=O)c2nc(N3C[C@@H]4CC(n5cc(C)cn5)C[C@H]4C3)n(C)c(=O)c2c1` (single isomer, unassigned) [Compound 367, 6-chloro-3-(((R)-1-(3,6-dimethyl-2-((3aR*,6aR*)-5-(4-methyl-1H-pyrazol-1-yl)hexahydrocyclopenta [c]pyrrol-2(1H)-yl)-4-oxo-3,4-dihydroquinazolin-8-yl)ethyl)amino)-N-(methylsulfonyl) picolinamide]: below 250 nM and at least 5000 nM.
Taken in the same sequence, the figures for `Cc1cc([C@@H](C)Nc2ccc(Cl)nc2C(=O)NS(C)(=O)=O)c2nc(N3C[C@H]4CC(c5ccn(C)n5)C[C@@H]4C3)n(C)c(=O)c2c1` (single isomer, unassigned) [Compound 425, 6-chloro-3-(((R)-1-(3,6-dimethyl-2-((3aS*,6aS*)-5-(1-methyl-1H-pyrazol-3-yl)hexahydrocyclopenta [c]pyrrol-2(1H)-yl)-4-oxo-3,4-dihydroquinazolin-8-yl)ethyl)amino)-N-(methylsulfonyl) picolinamide] were below 250 nM and at least 5000 nM.
The matching figures for `Cc1cc([C@@H](C)Nc2ccc(Cl)nc2C(=O)NS(C)(=O)=O)c2nc(N3C[C@@H]4CC(c5ccn(C)n5)C[C@H]4C3)n(C)c(=O)c2c1` (single isomer, unassigned) [Compound 426, 6-chloro-3-(((R)-1-(3,6-dimethyl-2-((3aR*,6aR*)-5-(1-methyl-1H-pyrazol-3-yl)hexahydrocyclopenta [c]pyrrol-2(1H)-yl)-4-oxo-3,4-dihydroquinazolin-8-yl)ethyl)amino)-N-(methylsulfonyl) picolinamide]: 250 to 500 nM and at least 5000 nM.
Turning to `Cc1cc([C@@H](C)Nc2ccc(Cl)nc2C(=O)NS(C)(=O)=O)c2nc(N3CC[C@H](c4cnc(C)c(C#N)c4)C3)n(C)c(=O)c2c1` (single isomer, unassigned) [Compound 655, 6-chloro-3-(((R)-1-(2-((R*)-3-(5-cyano-6-methylpyridin-3-yl)pyrrolidin-1-yl)-3,6-dimethyl-4-oxo-3,4-dihydroquinazolin-8-yl)ethyl)amino)-N-(methylsulfonyl) picolinamide], the IC50 in experiment [1] (setting [3]) is 1000 to 5000 nM; in experiment [2] (setting [4]) it was at least 5000 nM.
The matching figures for `Cc1cc([C@@H](C)Nc2ccc(Cl)nc2C(=O)NS(C)(=O)=O)c2nc(N3C[C@H]4CC(n5cc(C)cn5)C[C@@H]4C3)n(C)c(=O)c2c1` (single isomer, unassigned) [Compound 676, 6-chloro-3-(((R)-1-(3,6-dimethyl-2-((3aS*,6aS*)-5-(4-methyl-1H-pyrazol-1-yl)hexahydrocyclopenta [c]pyrrol-2(1H)-yl)-4-oxo-3,4-dihydroquinazolin-8-yl)ethyl)amino)-N-(methylsulfonyl) picolinamide]: 250 to 500 nM and at least 5000 nM.
Consider `Cc1cc([C@@H](C)Nc2ccc(Cl)nc2C(=O)NS(C)(=O)=O)c2nc(N3CCCC(c4ncc(Cl)cn4)C3)n(C)c(=O)c2c1` (stereo in doubt) [Compound 587, 6-chloro-3-(((R)-1-(2-((R*)-3-(5-chloropyrimidin-2-yl)piperidin-1-yl)-3,6-dimethyl-4-oxo-3,4-dihydroquinazolin-8-yl)ethyl)amino)-N-(methylsulfonyl) picolinamide], for which the IC50 in experiment [1] (HTRF phospho-AKT(S473), T47D (PI3Kα-H1047R) cells, 2 hours compound incubation) was 250 to 500 nM; in experiment [2] (HTRF phospho-AKT(S473), SKBR3 (PI3Kα-Wild Type) cells, 2 hours compound incubation, PDGF-BB stimulated) it was at least 5000 nM.
As for `Cc1cc([C@@H](C)Nc2ccc(Cl)nc2C(=O)NS(C)(=O)=O)c2nc(N3CC4C[C@H]3CN4c3ccc(N(C)C)cc3)n(C)c(=O)c2c1` (stereo in doubt) [Compound 743, 6-chloro-3-(((R)-1-(2-((1S,4R)-5-(4-(dimethylamino)phenyl)-2,5-diazabicyclo [2.2.1]heptan-2-yl)-3,6-dimethyl-4-oxo-3,4-dihydroquinazolin-8-yl)ethyl)amino)-N-(methylsulfonyl) picolinamide], the IC50 in experiment [1] (setting [3]) was 1000 to 5000 nM; in experiment [2] (setting [4]), at least 5000 nM.
As to `CCS(=O)(=O)NC(=O)c1nc(Cl)ccc1N[C@H](C)c1cc(C)cc2c(=O)n(C)c(N3Cc4ccc(F)cc4C3)nc12` [Compound 110, (R)-6-chloro-N-(ethylsulfonyl)-3-((1-(2-(5-fluoroisoindolin-2-yl)-3,6-dimethyl-4-oxo-3,4-dihydroquinazolin-8-yl)ethyl)amino) picolinamide], the IC50 was in the range of 250 to 500 nM in experiment [1] (setting [5]) and 1000 to 5000 nM in experiment [2] (setting [6]).
Taken in the same sequence, the figures for `COC(=O)NS(=O)(=O)c1nc(Cl)ccc1N[C@H](C)c1cc(C)cc2c(=O)n(C)c(N3Cc4ccc(F)cc4C3)nc12` [Compound 131, methyl (R)-((6-chloro-3-((1-(2-(5-fluoroisoindolin-2-yl)-3,6-dimethyl-4-oxo-3,4-dihydroquinazolin-yl)ethyl)amino)pyridin-2-yl)sulfonyl) carbamate] were 500 to 1000 nM and at least 5000 nM.
On to `Cc1cc([C@@H](C)Nc2ccc(Cl)nc2C(=O)NS(C)(=O)=O)c2nc(N3Cc4cn(-c5ccnc(C)c5)nc4C3)n(C)c(=O)c2c1` [Compound 146, (R)-6-chloro-3-((1-(3,6-dimethyl-2-(2-(2-methylpyridin-4-yl)-2,6-dihydropyrrolo[3,4-c]pyrazol-5(4H)-yl)-4-oxo-3,4-dihydroquinazolin-8-yl)ethyl)amino)-N-(methylsulfonyl) picolinamide], for which the IC50 in experiment [1] (setting [5]) was below 250 nM; in experiment [2] (setting [6]), 1000 to 5000 nM.
Turning to `Cc1cc([C@@H](C)Nc2ccc(Cl)nc2C(=O)NS(C)(=O)=O)c2nc(N3Cc4cn(-c5ccccc5)nc4C3)n(C)c(=O)c2c1` [Compound 147, (R)-6-chloro-3-((1-(3,6-dimethyl-4-oxo-2-(2-phenyl-2,6-dihydropyrrolo[3,4-c]pyrazol-5(4H)-yl)-3,4-dihydroquinazolin-8-yl)ethyl)amino)-N-(methylsulfonyl) picolinamide], the values for the IC50 in experiment [1] (setting [5]) and in experiment [2] (setting [6]) were 250 to 500 nM and at least 5000 nM, respectively.
The matching figures for `Cc1cc([C@@H](C)Nc2ccc(Cl)nc2C(=O)NS(C)(=O)=O)c2nc(N3Cc4n[nH]c(N)c4C3)n(C)c(=O)c2c1` [Compound 148, (R)-3-((1-(2-(3-amino-2,6-dihydropyrrolo[3,4-c]pyrazol-5(4H)-yl)-3,6-dimethyl-4-oxo-3,4-dihydroquinazolin-8-yl)ethyl)amino)-6-chloro-N-(methylsulfonyl) picolinamide]: 1000 to 5000 nM and at least 5000 nM.
The matching figures for `Cc1cc([C@@H](C)Nc2ccc(Cl)nc2C(=O)NS(C)(=O)=O)c2nc(N3Cc4cn(CCO)nc4C3)n(C)c(=O)c2c1` [Compound 149, (R)-6-chloro-3-((1-(2-(2-(2-hydroxyethyl)-2,6-dihydropyrrolo[3,4-c]pyrazol-5(4H)-yl)-3,6-dimethyl-4-oxo-3,4-dihydroquinazolin-8-yl)ethyl)amino)-N-(methylsulfonyl) picolinamide]: 250 to 500 nM and 1000 to 5000 nM.
For the compound `Cc1cc([C@@H](C)Nc2ccc(Cl)nc2C(=O)NS(=O)(=O)NC2CC2)c2nc(N3Cc4ccc(F)cc4C3)n(C)c(=O)c2c1` [Compound 152, (R)-6-chloro-N-(N-cyclopropylsulfamoyl)-3-((1-(2-(5-fluoroisoindolin-2-yl)-3,6-dimethyl-4-oxo-3,4-dihydroquinazolin-8-yl)ethyl)amino)picolinamide], the IC50 in experiment [1] (setting [5]) was 250 to 500 nM; in experiment [2] (setting [6]), at least 5000 nM.
The matching figures for `Cc1cc([C@@H](C)Nc2ccc(Cl)nc2C(=O)NS(C)(=O)=O)c2nc(N(C)CC3(C(F)(F)F)CC3)n(C)c(=O)c2c1` [Compound 163, (R)-6-chloro-3-((1-(3,6-dimethyl-2-(methyl((1-(trifluoromethyl)cyclopropyl)methyl)amino)-4-oxo-3,4-dihydroquinazolin-8-yl)ethyl)amino)-N-(methylsulfonyl) picolinamide]: 250 to 500 nM and 1000 to 5000 nM.
The matching figures for `Cc1cc([C@@H](C)Nc2ccc(Cl)nc2C(=O)NS(C)(=O)=O)c2nc(N3CCN(c4ccc(C#N)cn4)CC3)n(C)c(=O)c2c1` [Compound 164, (R)-6-chloro-3-((1-(2-(4-(5-cyanopyridin-2-yl)piperazin-1-yl)-3,6-dimethyl-4-oxo-3,4-dihydroquinazolin-8-yl)ethyl)amino)-N-(methylsulfonyl) picolinamide]: below 250 nM and 1000 to 5000 nM.
